Square brackets hold non-standard residues; d marks the D form. Side chains are listed from the residue outwards. Peptide text beside a SMILES is read from it. * marks the point of attachment. Phe(2-F) = N[C@@H](Cc1ccccc1F)C(=O)O; NMeY = CN[C@@H](Cc1ccc(O)cc1)C(=O)O; Palmitoyl = CCCCCCCCCCCCCCCC(=O)*; αMeF = C[C@](N)(Cc1ccccc1)C(=O)O; Iva = CC[C@](C)(N)C(=O)O; Aib = CC(C)(N)C(=O)O
What was measured:
[1] = target: T1, human GLP-1R (Homo sapiens, UniProt P43220); experiment: Reporter assay of human GLP-1R gene (agonist activity, intracellular cAMP as index); type: cell-based; conditions: Cre-luc reporter, hGLP-1R/Crel cells (CHO-K1), 4 hours
T1 construct: expressed in transfected cells; host or cells: CHO-K1 Cre-luc reporter cells (hGLP-1R/Crel cells)
T1 sequence (P43220 24-463): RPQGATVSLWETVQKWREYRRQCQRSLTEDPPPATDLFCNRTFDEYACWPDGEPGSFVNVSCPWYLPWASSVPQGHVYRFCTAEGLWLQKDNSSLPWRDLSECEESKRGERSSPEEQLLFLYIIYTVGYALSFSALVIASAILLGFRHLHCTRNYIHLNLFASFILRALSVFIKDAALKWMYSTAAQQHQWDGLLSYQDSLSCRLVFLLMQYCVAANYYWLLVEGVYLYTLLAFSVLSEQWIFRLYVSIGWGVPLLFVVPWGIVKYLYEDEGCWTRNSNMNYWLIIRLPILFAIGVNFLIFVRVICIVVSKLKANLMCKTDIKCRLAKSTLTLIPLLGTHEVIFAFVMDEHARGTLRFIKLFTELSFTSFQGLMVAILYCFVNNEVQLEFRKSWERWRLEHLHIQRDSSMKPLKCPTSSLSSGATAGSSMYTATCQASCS
Description: Evaluation of Agonist Activity Against Human NPY2R, Human GIPR, and Human GLP-1R Using Change in Intracellular cAMP Concentration as Index
The human GLP-1R gene having a sequence identical to the sequence of GenBank Accession No. NM_002062 was cloned into pIRESneo3 vector (Clontech Laboratories, Inc.) to prepare hGLP-1R/pIRESneo3. This vector was introduced to the Cre-luc reporter cells obtained in (1) to obtain transformants. Next, a cell line induced to express luciferase, i.e., hGLP-1R/Crel cells, were selected from the obtained transformants by the addition of human GLP-1(7-37) peptide.
The hGIPR/CRE-LUC/CHO-K1 cells or the hGLP-1R/Crel cells were inoculated at a cell density of 25 μL/well (5,000 cells/well) to a 384-well white plate (Corning, 3570), and cultured overnight in Ham F12 medium containing 10% fetal bovine serum, 100 U/mL penicillin and 100 μg/mL streptomycin in a CO2 incubator of 37° C. On the next day, a medium containing a test compound was added at a concentration of 5 μL/well to the cells, and the resultant cells were incubated for 4 hours in a CO2 incubator of 37° C. to give the final concentration of 1 μM. SteadyGlo (Promega) was added thereto at a concentration of 30 μL/well, and the mixture was shaken with light shielded. After 30 minutes, the luciferase activity was measured using a plate reader Envision (PerkinElmer). For the GIPR agonist activity, the luciferase activity in the presence of 10 μM GIP was defined as 100%, and the luciferase activity from the addition of DMSO instead of the test compound was defined as 0%. The GIPR agonist activity was calculated with a rise in intracellular cAMP concentration as an index.
For the GLP-1R agonist activity, assay similar to above was conducted using the hGLP-1R/Crel cells. The luciferase activity in the presence of 10 μM GLP-1 was defined as 100%, and the luciferase activity from the addition of DMSO instead of the test compound was defined as 0%. The GLP-1R agonist activity was calculated with a rise in intracellular cAMP concentration as an index.

[2] = target: T2, human GIPR (Homo sapiens, UniProt P48546); experiment: Reporter assay of human GIPR gene (agonist activity, intracellular cAMP as index); type: cell-based; conditions: Cre-luc reporter, hGIPR/CHO-K1 cells, 4 hours
T2 construct: expressed in transfected cells; host or cells: CHO-K1 Cre-luc reporter cells (hGIPR/CHO-K1, also called hGIPR/CRE-LUC/CHO-K1)
T2 sequence (P48546 22-466): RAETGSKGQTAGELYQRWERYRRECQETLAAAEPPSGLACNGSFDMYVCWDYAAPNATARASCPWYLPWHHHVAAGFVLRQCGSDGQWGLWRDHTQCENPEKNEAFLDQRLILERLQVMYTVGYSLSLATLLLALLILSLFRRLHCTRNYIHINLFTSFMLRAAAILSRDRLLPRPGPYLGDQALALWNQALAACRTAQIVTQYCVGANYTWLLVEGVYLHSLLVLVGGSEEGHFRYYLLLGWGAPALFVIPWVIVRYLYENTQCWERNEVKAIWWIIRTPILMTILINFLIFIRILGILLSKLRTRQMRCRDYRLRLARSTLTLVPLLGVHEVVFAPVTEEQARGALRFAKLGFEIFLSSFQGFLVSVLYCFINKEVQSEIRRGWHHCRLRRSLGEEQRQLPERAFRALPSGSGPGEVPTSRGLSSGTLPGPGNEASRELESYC

[3] = test system: male C57BL/6J mouse; experiment: Evaluation of feeding suppressive action in mice; type: in vivo; conditions: 30 nmol/kg s.c. once a day for 3 days; 3-days cumulative food consumption vs solvent control
How it was run: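 Male C57BL/6J mice, 8-9 weeks, ad libitum fed, given compound (30 or 100 nmol/2 mL in 10% DMSO saline) s.c. at 2 mL/kg once daily for 3 days. Cumulative 3-day food consumption measured by weighing; suppression rate (%) calculated relative to vehicle controls.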

| EC50 [1] [nM] | EC50 [2] [nM] | SMILES | Rate of feeding suppression (%) [3] [%] |
| --- | --- | --- | --- |
| 0.13 |  | CCCCCCCCCCCCCCCC(=O)NCC(=O)NCC(=O)NCC(=O)NCC(=O)NCCCC[C@H](NC(=O)[C@H](CC(=O)O)NC(=O)[C@H](CO)NC(=O)[C@@H](NC(=O)[C@](C)(Cc1ccccc1)NC(=O)[C@@H](NC(=O)CNC(=O)[C@H](CCC(=O)O)NC(=O)C(C)(C)NC(=O)[C@H](Cc1ccc(O)cc1)NC)[C@@H](C)O)[C@@H](C)O)C(=O)NC(C)(C)C(=O)N[C@H](C(=O)NC(C)(C)C(=O)N[C@@H](CC(C)C)C(=O)N[C@@H](CC(=O)O)C(=O)N[C@@H](CCCCN)C(=O)N[C@@H](CCC(N)=O)C(=O)N[C@@H](CCCNC(=N)N)C(=O)N[C@@H](CCC(N)=O)C(=O)N[C@@](C)(CC)C(=O)N[C@@H](CCC(=O)O)C(=O)N[C@@H](Cc1ccccc1)C(=O)N[C@H](C(=O)N[C@@H](CCCNC(=N)N)C(=O)N[C@@H](Cc1c[nH]cn1)C(=O)N[C@@H](CC(C)C)C(=O)N[C@@H](CC(C)C)C(=O)N[C@@H](CC(N)=O)C(=O)N[C@@H](CCCCN)C(=O)NC(C)(C)C(=O)N[C@H](C(=O)N[C@@H](CCCNC(=N)N)C(=O)N[C@@H](CCC(N)=O)C(=O)N[C@@H](CCCNC(=N)N)C(=O)N[C@@H](Cc1ccccc1F)C(N)=O)[C@@H](C)O)C(C)C)[C@@H](C)CC [Example 5] (H-[NMeY][Aib]EGT[αMeF]TSDK([Gly-Gly-Gly-Gly-Palmitoyl])[Aib]I[Aib]LDKQRQ[Iva]EFVRHLLNK[Aib]TRQR[Phe(2-F)]-NH2) |  |
| 0.13 | 0.091 | CCCCCCCCCCCCCCCC(=O)NCC(=O)NCC(=O)NCC(=O)NCC(=O)NCCCC[C@H](NC(=O)[C@H](CC(=O)O)NC(=O)[C@H](CO)NC(=O)[C@@H](NC(=O)[C@](C)(Cc1ccccc1)NC(=O)[C@@H](NC(=O)CNC(=O)[C@H](CCC(=O)O)NC(=O)C(C)(C)NC(=O)[C@@H](N)Cc1ccc(O)cc1)[C@@H](C)O)[C@@H](C)O)C(=O)N[C@@H](CO)C(=O)N[C@@H](CCCCN)C(=O)NC(C)(C)C(=O)N[C@@H](CC(C)C)C(=O)N[C@@H](CC(=O)O)C(=O)N[C@@H](CCCCN)C(=O)N[C@@H](CCC(N)=O)C(=O)N[C@@H](CCCNC(=N)N)C(=O)N[C@@H](CCC(N)=O)C(=O)N[C@@](C)(CC)C(=O)N[C@@H](CCC(=O)O)C(=O)N[C@@H](Cc1ccccc1)C(=O)N[C@H](C(=O)N[C@@H](CCCNC(=N)N)C(=O)N[C@@H](Cc1c[nH]cn1)C(=O)N[C@@H](CC(C)C)C(=O)N[C@@H](CC(C)C)C(=O)N[C@@H](CC(N)=O)C(=O)N[C@@H](CCCCN)C(=O)NC(C)(C)C(=O)N[C@H](C(=O)N[C@@H](CCCNC(=N)N)C(=O)N[C@@H](CCC(N)=O)C(=O)N[C@@H](CCCNC(=N)N)C(=O)N[C@@H](Cc1ccc(O)cc1)C(N)=O)[C@@H](C)O)C(C)C [Example 23] (H-Y[Aib]EGT[αMeF]TSDK([Gly-Gly-Gly-Gly-Palmitoyl])SK[Aib]LDKQRQ[Iva]EFVRHLLNK[Aib]TRQRY-NH2) |  |
| 0.13 |  | CCCCCCCCCCCCCCCC(=O)NCC(=O)NCC(=O)NCC(=O)NCC(=O)NCCCC[C@H](NC(=O)[C@H](CC(=O)O)NC(=O)[C@H](CO)NC(=O)[C@@H](NC(=O)[C@](C)(Cc1ccccc1)NC(=O)[C@@H](NC(=O)CNC(=O)[C@H](CCC(=O)O)NC(=O)C(C)(C)NC(=O)[C@H](Cc1ccc(O)cc1)NC)[C@@H](C)O)[C@@H](C)O)C(=O)NC(C)(C)C(=O)N[C@H](C(=O)NC(C)(C)C(=O)N[C@@H](CC(C)C)C(=O)N[C@@H](CCC(=O)O)C(=O)N[C@@H](CCCCN)C(=O)N[C@@H](CCC(N)=O)C(=O)N[C@@H](CCCNC(=N)N)C(=O)N[C@@H](CCC(N)=O)C(=O)N[C@@](C)(CC)C(=O)N[C@@H](CCC(=O)O)C(=O)N[C@@H](Cc1ccccc1)C(=O)N[C@H](C(=O)N[C@@H](CCCNC(=N)N)C(=O)N[C@@H](Cc1c[nH]cn1)C(=O)N[C@@H](CC(C)C)C(=O)N[C@@H](CC(C)C)C(=O)N[C@@H](CC(N)=O)C(=O)N[C@@H](CCCCN)C(=O)NC(C)(C)C(=O)N[C@H](C(=O)N[C@@H](CCCNC(=N)N)C(=O)N[C@@H](CCC(N)=O)C(=O)N[C@@H](CCCNC(=N)N)C(=O)N[C@@H](Cc1ccc(O)cc1)C(N)=O)[C@@H](C)O)C(C)C)[C@@H](C)CC [Example 33] (H-[NMeY][Aib]EGT[αMeF]TSDK([Gly-Gly-Gly-Gly-Palmitoyl])[Aib]I[Aib]LEKQRQ[Iva]EFVRHLLNK[Aib]TRQRY-NH2) | −58.4 |

Source: patent US10501516B2, “Peptide compound” (TAKEDA PHARMACEUTICAL COMPANY LIMITED, priority 2016, dated 2019)
